In article PMC7377239, “Cardiovascular Effects of Polychlorinated Biphenyls and Their Major Metabolites” (Environmental Health Perspectives, 2020):
Where two headings read alike, the source gives them in different places.

Tests used:
HUVECs = assay: Tube formation (tubulogenesis) assay in HUVECs, 18 h; assay type: cell-based, human; conditions: Homo sapiens, HUVEC, 18 h, HUVEC; for activity at 0.01 µM: concentration 0.01 µM; for activity at 0.1 µM: concentration 0.10 µM; for activity at 1 µM: concentration 1.00 µM; for activity at 10 µM: concentration 10.00 µM; for activity at 100 µM: concentration 100.00 µM
In short: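 HUVECs (passage 1–5) seeded on reduced-growth-factor basement membrane and exposed to compounds overnight at 37°C, 5% CO2, in 2× maintenance medium with 12.5 ng/mL VEGF; 0.5% DMSO vehicle. Calcein AM-stained tube networks imaged and analysed; vehicle-normalized readouts fit to four-parameter logistic, POD set at one SD of vehicle means.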

[1] = tested on: iCell endothelial cells (human iPSC-derived ECs); assay: High-content imaging cytotoxicity in iCell endothelial cells, 24 h; assay type: cell-based; conditions: Homo sapiens, Endothelial cell; for viability at 0.1 µM / activity at 0.1 µM: 0.10 µM
In short: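 Readouts were vehicle-normalised and fitted to a four-parameter logistic model. POD was set at one SD beyond 0.5% DMSO control means, and 100 µM was assigned when no response was seen. Cells were monolayers of iCell endothelial cells imaged after 24 h compound exposure using nuclear, mitochondrial and calcein dyes.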

[2] = HUVECs tube formation, 0.00 µM = 100.00, read-out: huvec.mtl.18hr
[3] = HUVECs tube formation, 0.00 µM = 100.00, read-out: huvec.tlps.18hr
[4] = HUVECs tube formation, 0.00 µM = 100.00, read-out: huvec.tta.18hr
[5] = HUVECs tube formation, 0.00 µM = 100.00, read-out: huvec.ttl.18hr
[6] = iPSC-EC, 0.00 µM = 100.00, read-out: endo.cyto.24hr
[7] = iPSC-EC, 0.00 µM = 100.00, read-out: endo.mito.24hr
[8] = iPSC-EC, 0.00 µM = 100.00, read-out: endo.mitoint.24hr
[9] = iPSC-EC, 0.00 µM = 100.00, read-out: endo.nma.24hr
[10] = iPSC-EC, 0.00 µM = 100.00, read-out: endo.tc.24hrs

Compound `Oc1ccc(O)c(-c2ccc(Cl)cc2)c1` [2',5'-diOH-PCB 3, 4-Chloro-2′,5′-dihydroxybiphenyl] has a minimal effective concentration (HUVECs; tube formation mtl, read-out: POD huvec.mtl.18hr) of 1.26 µM, a minimal effective concentration (HUVECs; tube formation tlps, read-out: POD huvec.tlps.18hr) of 1.55 µM and a minimal effective concentration (HUVECs; tube formation tta, read-out: POD huvec.tta.18hr) of 1.39 µM. It also gave a minimal effective concentration (HUVECs; tube formation ttl, read-out: POD huvec.ttl.18hr) of 1.23 µM, a minimal effective concentration ([1]; endothelial cells (endo), cyto, 24 hr, read-out: POD endo.cyto.24hr) of 6.71 µM and a minimal effective concentration ([1]; endothelial cells (endo), mito, 24 hr, read-out: POD endo.mito.24hr) of 6.71 µM. For the same compound, the minimal effective concentration ([1]; endothelial cells (endo), mitoint, 24 hr, read-out: POD endo.mitoint.24hr) was 44.6 µM, the minimal effective concentration ([1]; endothelial cells (endo), nma, 24 hr, read-out: POD endo.nma.24hr) was 13.7 µM and the minimal effective concentration ([1]; endothelial cells (endo), tc, 24 hr, read-out: POD endo.tc.24hr) was 5.78 µM.
With `COc1cc(Cl)c(-c2cc(Cl)ccc2Cl)cc1Cl` [4-OMe PCB52] the minimal effective concentration (HUVECs; HUVECs tube formation, MAX 100.00, read-out: huvec.mtl.18hr POD) was 17.1 µM, the minimal effective concentration (HUVECs; HUVECs tube formation, MAX 100.00, read-out: huvec.tlps.18hr POD) was 14.2 µM and the minimal effective concentration (HUVECs; HUVECs tube formation, MAX 100.00, read-out: huvec.tta.18hr POD) was 100 µM. For the same compound, the minimal effective concentration (HUVECs; HUVECs tube formation, MAX 100.00, read-out: huvec.ttl.18hr POD) was 100 µM, the activity at 0.01 µM (HUVECs; [2]) was 105% and the activity at 0.01 µM (HUVECs; [3]) was 93.8%. For the same compound, the activity at 0.01 µM (HUVECs; [4]) was 98.5%, the activity at 0.01 µM (HUVECs; [5]) was 87.4% and the activity at 0.1 µM (HUVECs; [2]) was 95.6%. It also gave an activity at 0.1 µM (HUVECs; [3]) of 86.8%, an activity at 0.1 µM (HUVECs; [4]) of 80.4% and an activity at 0.1 µM (HUVECs; [5]) of 70.5%. The activity at 1 µM (HUVECs; [2]) was 109%, the activity at 1 µM (HUVECs; [3]) was 140% and the activity at 1 µM (HUVECs; [4]) was 102%. For the same compound, the activity at 1 µM (HUVECs; [5]) was 93.9%, the activity at 10 µM (HUVECs; [2]) was 94.7% and the activity at 10 µM (HUVECs; [3]) was 81.4%. For the same compound, the activity at 10 µM (HUVECs; [4]) was 92.9%, the activity at 10 µM (HUVECs; [5]) was 84.8% and the activity at 100 µM (HUVECs; [2]) was 59.2%. For the same compound, the activity at 100 µM (HUVECs; [3]) was 42.6%, the activity at 100 µM (HUVECs; [4]) was 75.1% and the activity at 100 µM (HUVECs; [5]) was 67.4%. It also gave a viability at 0.01 µM [1, 6] of 104%, an activity at 0.01 µM [1, 7] of 104% and an activity at 0.01 µM [1, 8] of 88.9%. The activity at 0.01 µM [1, 9] was 102%, the viability at 0.01 µM [1, 10] was 104% and the viability at 0.1 µM [1, 6] was 101%. For the same compound, the activity at 0.1 µM [1, 7] was 101%, the activity at 0.1 µM [1, 8] was 88% and the activity at 0.1 µM [1, 9] was 102%. The viability at 0.1 µM [1, 10] was 101%, the viability at 1 µM [1, 6] was 104% and the activity at 1 µM [1, 7] was 103%. The activity at 1 µM [1, 8] was 84.8%, the activity at 1 µM [1, 9] was 100% and the viability at 1 µM [1, 10] was 104%. The viability at 10 µM [1, 6] was 106%, the activity at 10 µM [1, 7] was 106% and the activity at 10 µM [1, 8] was 92.2%. The activity at 10 µM [1, 9] was 99.7%, the viability at 10 µM [1, 10] was 106% and the viability at 100 µM [1, 6] was 53.2%. The activity at 100 µM [1, 7] was 48.4%, the activity at 100 µM [1, 8] was 74.5% and the activity at 100 µM [1, 9] was 117%. It also gave a viability at 100 µM [1, 10] of 56.6%, a minimal effective concentration ([1]; iPSC-EC, 100.00 = highest concentration tested, read-out: endo.cyto.24hr POD) of 43.5 µM and a minimal effective concentration ([1]; iPSC-EC, 100.00 = highest concentration tested, read-out: endo.mito.24hr POD) of 43.5 µM. It also gave a minimal effective concentration ([1]; iPSC-EC, 100.00 = highest concentration tested, read-out: endo.mitoint.24hr POD) of 100 µM, a minimal effective concentration ([1]; iPSC-EC, 100.00 = highest concentration tested, read-out: endo.nma.24hr POD) of 56.1 µM and a minimal effective concentration ([1]; iPSC-EC, 100.00 = highest concentration tested, read-out: endo.tc.24hrs POD) of 40.3 µM.
